According to ChEMBL document CHEMBL1153343, “Liver X receptor agonists with selectivity for LXRbeta; N-aryl-3,3,3-trifluoro-2-hydroxy-2-methylpropionamides” (Bioorg Med Chem Lett, 2009):
Values after ≈ are worked out from the molar mass of the structure shown. Active and inactive are the calls of the source. The rule behind the calls is not given here.

How the values were obtained:
[1] = target: T1, Oxysterols receptor LXR-beta (Homo sapiens, UniProt P55055); assay: Agonist activity at LXRbeta ligand binding domain by FRET based SRC1 recruitment assay
T1 sequence (P55055 whole entry): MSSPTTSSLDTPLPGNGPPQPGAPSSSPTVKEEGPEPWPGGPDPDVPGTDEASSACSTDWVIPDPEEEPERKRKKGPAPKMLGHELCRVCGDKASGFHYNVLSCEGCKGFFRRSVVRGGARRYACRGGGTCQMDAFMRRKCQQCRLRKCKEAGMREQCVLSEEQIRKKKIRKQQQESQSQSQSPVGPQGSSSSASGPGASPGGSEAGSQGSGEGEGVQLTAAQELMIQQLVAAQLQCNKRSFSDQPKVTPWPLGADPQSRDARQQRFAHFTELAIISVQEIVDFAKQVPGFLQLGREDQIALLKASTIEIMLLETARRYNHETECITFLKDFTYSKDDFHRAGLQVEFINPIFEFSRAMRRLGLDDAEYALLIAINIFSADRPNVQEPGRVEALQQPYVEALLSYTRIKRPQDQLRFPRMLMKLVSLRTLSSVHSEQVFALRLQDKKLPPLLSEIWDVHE

[2] = target: T2, Oxysterols receptor LXR-alpha (Homo sapiens, UniProt Q13133); assay: Agonist activity at LXRalpha ligand binding domain by FRET based SRC1 recruitment assay
T2 sequence (Q13133 whole entry): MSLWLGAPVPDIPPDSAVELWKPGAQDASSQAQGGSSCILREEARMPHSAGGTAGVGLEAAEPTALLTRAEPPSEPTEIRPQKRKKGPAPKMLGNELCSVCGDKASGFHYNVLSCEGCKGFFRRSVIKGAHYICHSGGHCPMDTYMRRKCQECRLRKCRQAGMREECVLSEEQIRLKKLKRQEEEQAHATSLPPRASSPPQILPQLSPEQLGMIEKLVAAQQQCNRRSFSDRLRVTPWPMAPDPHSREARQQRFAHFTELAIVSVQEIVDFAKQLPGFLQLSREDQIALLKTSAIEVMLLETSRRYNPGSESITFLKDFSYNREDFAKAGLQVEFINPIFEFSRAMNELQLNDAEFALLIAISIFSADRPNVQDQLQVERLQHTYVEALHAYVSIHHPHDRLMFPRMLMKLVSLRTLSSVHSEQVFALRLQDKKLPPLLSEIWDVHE

[3] = target: T1, Oxysterols receptor LXR-beta; assay: Agonist activity at human LXRbeta expressed in human SH-SY5Y cells co-transfected with Gal4-LBD after 24 hrs by luciferase reporter gene assay; type: functional, cell-based
[4] = target: T2, Oxysterols receptor LXR-alpha; assay: Agonist activity at human LXRalpha expressed in human SH-SY5Y cells co-transfected with Gal4-LBD after 24 hrs by luciferase reporter gene assay; type: functional, cell-based
[5] = Solubility in 0.1 M phosphate buffer at pH 7.4 at 100 uM after 24 hrs by UV-TIC; type: physicochemical
[6] = Permeability across human Caco-2 cell membrane; type: ADME, cell-based; settings: read-out: permeability
[7] = Clearance in po dosed rat; type: ADME, organism-based; settings: in vivo
Rattus norvegicus = assay: Volume of distribution in po dosed rat; type: ADME, organism-based; settings: in vivo
[8] = Half life in po dosed rat; type: ADME, organism-based; settings: in vivo
[9] = Bioavailability in rat; type: ADME, organism-based; settings: in vivo
Mus musculus [10] = assay: Upregulation of ABCA1 mRNA level in mouse brain homogenates at 30 umol/kg, po daily once after 3 days relative to control; type: functional
Mus musculus [11] = assay: Upregulation of ABCG1 mRNA level in mouse brain homogenates at 30 umol/kg, po daily once after 3 days relative to control; type: functional
Mus musculus [12] = assay: Upregulation of SREBP-1c mRNA level in mouse liver at 30 umol/kg, po daily once after 3 days relative to control; type: functional
Mus musculus [13] = assay: Upregulation of SREBP-1c mRNA level in mouse liver at 1.0 umol/kg, po daily once after 3 days relative to control; type: functional
[14] = target: T3, Oxysterols receptor LXR-beta (Homo sapiens) (UniProt P55055); assay: Agonist activity at human LXRbeta expressed in human U2OS cells co-transfected with Gal4-LBD after 24 hrs by luciferase reporter gene assay; type: functional, cell-based
T3 sequence (whole entry): T1 sequence (P55055 whole entry)

[15] = target: T4, Oxysterols receptor LXR-alpha (Homo sapiens) (UniProt Q13133); assay: Agonist activity at human LXRalpha expressed in human U2OS cells co-transfected with Gal4-LBD after 24 hrs by luciferase reporter gene assay; type: functional, cell-based
T4 sequence (whole entry): T2 sequence (Q13133 whole entry)

Structure (SMILES) | EC50 [1] [nM] | EC50 [2] [nM] | EC50 [3] [nM] | EC50 [4] [nM] | other results
COC(=O)c1ccc(S(=O)(=O)N(C)c2ccc(NC(=O)C(C)(O)C(F)(F)F)c(Cl)c2)cc1 (stereo not drawn) | 2320 | 3100 | 3810 | 3610 | –
C[C@H](CC[C@@H]1OC1(C)C)[C@H]1CC[C@H]2[C@@H]3CC=C4C[C@@H](O)CC[C@]4(C)[C@H]3CC[C@]12C [24(S),25-EPOXYCHOLESTEROL] | 286 | 280 | 400 | – | –
Cc1ccc(S(=O)(=O)N(C)c2ccc(NC(=O)[C@](C)(O)C(F)(F)F)c(Cl)c2)cc1 | 1500 | 1970 | 1590 | 5000 | –
CN(c1ccc(NC(=O)C(C)(O)C(F)(F)F)c(Cl)c1)S(=O)(=O)c1ccc(C#N)cc1 (stereo not drawn) | 2600 | 3400 | 2700 | 5000 | solubility at 24 h, 100 µM [5]: 61 µM (≈ 28.2 µg/mL); Papp [6]: 28 ×10⁻⁶ cm/s; CL/F [7]: 24.6 mL/min/kg; Vd (Rattus norvegicus): 4.1 L/kg; half-life [8]: 4.4 h; bioavailability [9]: 39%; fold change (FC) (Mus musculus [10]): 1.25; fold change (FC) (Mus musculus [11]): 1.3; fold change (FC) (Mus musculus [12]): 1.3; fold change (FC) (Mus musculus [13]): 3.6; Activity [14]: inactive; Activity [15]: inactive
CC(O)(C(=O)Nc1ccc(N(Cc2ccccc2)S(=O)(=O)c2ccccc2Cl)cc1Cl)C(F)(F)F (stereo not drawn) | 880 | > 100000 | > 30000 | > 30000 | –
COC(=O)CCc1ccc(S(=O)(=O)N(C)c2ccc(NC(=O)C(C)(O)C(F)(F)F)c(Cl)c2)cc1 (stereo not drawn) | 3500 | 3500 | > 30000 | > 30000 | –
CN(c1ccc(NC(=O)[C@](C)(O)C(F)(F)F)c(Cl)c1)S(=O)(=O)c1ccccc1Cl | 626 | – | 813 | 1820 | Activity [14]: inactive; Activity [15]: inactive
CN(c1ccc(NC(=O)C(C)(O)C(F)(F)F)c(Cl)c1)S(=O)(=O)c1ccc(CCC(=O)O)cc1 (stereo not drawn) | > 100000 | > 100000 | > 30000 | > 30000 | –
CCN(c1ccc(NC(=O)C(C)(O)C(F)(F)F)c(Cl)c1)S(=O)(=O)c1ccccc1Cl (stereo not drawn) | 790 | 1000 | 7500 | 8500 | –
CN(c1ccc(NC(=O)C(C)(O)C(F)(F)F)c(Cl)c1)S(=O)(=O)c1ccc(C(=O)O)cc1 (stereo not drawn) | > 100000 | > 100000 | > 30000 | > 30000 | –
O=C(O)Cc1cccc(OCCCN(Cc2cccc(C(F)(F)F)c2Cl)CC(c2ccccc2)c2ccccc2)c1 | 78 | 280 | 130 | 310 | –
CC(O)(C(=O)Nc1ccc(N(CC2CC2)S(=O)(=O)c2ccccc2Cl)cc1Cl)C(F)(F)F (stereo not drawn) | 940 | 1080 | > 30000 | > 30000 | –
C=CCN(c1ccc(NC(=O)C(C)(O)C(F)(F)F)c(Cl)c1)S(=O)(=O)c1ccccc1Cl (stereo not drawn) | 580 | 470 | > 30000 | > 30000 | –
CN(c1ccc(NC(=O)[C@](C)(O)C(F)(F)F)c(Cl)c1)S(=O)(=O)c1ccccc1 | 1900 | 3300 | 959 | 5000 | –
